According to US7250413B2, “C-25 carbamate rifamycin derivatives with activity against drug-resistant microbes” (Cumbre Pharmaceuticals Inc., priority 2004, dated 2007):
Values after ≈ are worked out from the molar mass of the structure shown. Like-named read-outs stand apart in the source and are kept apart here.

Experiments:
Assay type in all cases: cell-based
[1] = system: Enterococcus faecalis ATCC29212; test: MIC, microbroth dilution; conditions: rifS, BHI Broth, 37° C., read-out: MIC
Summary of the method: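 Minimum Inhibitory Concentrations against Enterococcus faecalis were measured by microbroth dilution following NCCLS guidelines (National Committee for Clinical Laboratory Standards, 2000). The bacteria were grown in BHI Broth. Unlike the standard protocol, every growth incubation was carried out at 37° C.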

[2] = system: Mycobacterium smegmatis ATCC700084; test: MIC, microbroth dilution
Summary of the method: (§1)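 Values are minimum inhibitory concentrations obtained by the NCCLS microbroth dilution method. Incubations ran at 37 °C in species-specific media: Mueller-Hinton (cation-adjusted) for S. aureus, hematin/NAD-supplemented BHI for H. influenzae, ADC-enriched Middlebrook for M. smegmatis.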

[3] = system: Staphylococcus aureus ATCC29213; test: MIC, microbroth dilution; conditions: rifS, Cation-Adjusted Mueller-Hinton Broth, 37° C., read-out: MIC
Summary of the method: as §1

[4] = system: Escherichia coli ATCC25922; test: MIC, microbroth dilution; conditions: rifS, Cation-Adjusted Mueller-Hinton Broth, 37° C.
[5] = system: Streptococcus pyogenes ATCC19615; test: MIC, microbroth dilution; conditions: rifS, THY Broth, 37° C.
[6] = system: Streptococcus pneumoniae ATCC6303; test: MIC, microbroth dilution; conditions: rifS, THY Broth supplemented with 1 mg/mL catalase under 5% CO2, 37° C.
[7] = system: Haemophilus influenzae ATCC10211; test: MIC, microbroth dilution
Summary of the method: as §1

[8] = system: Staphylococcus epidermidis ATCC12228; test: MIC, microbroth dilution; conditions: rifS, Cation-Adjusted Mueller-Hinton Broth, 37° C.
Summary of the method: as §1

[9] = system: Staphylococcus aureus ATCC29213 rpoB^D417Y; test: microbe, parasite or virus in culture
Method: (§2) Representative compounds were assayed for antimicrobial activity as follows: Minimum Inhibitory Concentrations (“MICs”) were determined by the microbroth dilution method as per NCCLS guidelines (National Committee for Clinical Laboratory Standards, 2000), except that all growth incubations were conducted at 37° C. Bacterial cultures were tested in the following bacteriological media: S. aureus, S. epidermidis, and E. coli in Cation-Adjusted Mueller-Hinton Broth, S. pneumoniae in THY Broth supplemented with 1 mg/mL catalase under 5% CO2 atmosphere, S. pyogenes in THY Broth, E. faecalis in BHI Broth, H. influenzae in BHI Broth supplemented with 0.75 μL of 1 mg/mL NAD and 150 μL of 1 mg/ml hematin per 5 mL, and M smegmatis in Middlebrook Broth plus ADC Enrichment.

[10] = system: Staphylococcus aureus ATCC29213 rpoB^H418Y; test: microbe, parasite or virus in culture
Method: as §2

[11] = MIC, summary over rifampin-susceptible Gram-positive strains; conditions: read-out: MICs
Method: as §2

[12] = system: H. influenzae ATCC 10211 and E. coli ATCC 25922; test: MIC, summary over Gram-negative bacteria
Method: as §2

[13] = Mycolicibacterium smegmatis, ATCC700084, rifS, Middlebrook Broth plus ADC Enrichment, 37° C., read-out: MIC

SMILES	MIC [1]	MIC [2, 13]	MIC [3]	MIC [4]	MIC [5]	MIC [6]	MIC [7]	MIC ([2]; mycobacterial strain M smegamatis ATCC 700084)	MIC [8]	MIC ([9]; Staphylococcus aureus, ATCC29213)	MIC ([9]; rifR, Cation-Adjusted Mueller-Hinton Broth, 37° C.)	MIC ([10]; ATCC29213, rifR, Cation-Adjusted Mueller-Hinton Broth, 37° C.)	MIC ([10]; ATCC29213, text, rifampin-resistant strain S. aureus ATCC 29213 RpoB^H418Y)	MIC [11]	MIC [12]
CO[C@H]1/C=C/O[C@@]2(C)Oc3c(C)c(O)c4c(c3/C2=N/O)C(=O)C(N2CCOCC2)=C(NC(=O)/C(C)=C\C=C\[C@H](C)[C@H](O)[C@@H](C)[C@@H](O)[C@@H](C)[C@H](OC(=O)NCCN(C)C)[C@@H]1C)C4=O [Example 69]	0.25 to 62 µg/mL (≈ 0.288 to 71.4 µM)	0.063 to 31 µg/mL	0.002 to 1.95 µg/mL (≈ 0.0023 to 2.25 µM)												
CO[C@H]1/C=C/O[C@@]2(C)Oc3c(C)c(O)c4c(O)c(c(/C=N/N5CCN(C)CC5)c(O)c4c3C2=O)NC(=O)/C(C)=C\C=C\[C@H](C)[C@H](O)[C@@H](C)[C@@H](O)[C@@H](C)[C@H](OC(C)=O)[C@@H]1C [rifampin]	0.98 µg/mL (≈ 1.19 µM)	64 µg/mL	0.008 µg/mL (≈ 0.00972 µM)	16 µg/mL (≈ 19.4 µM)	0.013 µg/mL (≈ 0.0158 µM)	0.061 µg/mL (≈ 0.0741 µM)	0.24 µg/mL (≈ 0.292 µM)	64 µg/mL (≈ 77.8 µM)	0.03 µg/mL (≈ 0.0365 µM)	> 64 µg/mL	>64 µg/mL	7.8 µg/mL (≈ 9.48 µM)	8 µg/mL (≈ 9.72 µM)	0.03 to 1.3 µg/mL (≈ 0.0365 to 1.58 µM)	0.24 to 16 µg/mL (≈ 0.292 to 19.4 µM)
